# Measurements reported in patent US9132203B2, “Complex and contrast agent for photoimaging using the same” (CANON KABUSHIKI KAISHA, priority 2010, dated 2015).
# Key:
# [1] = Absorption spectrum / absorbance at 780 nm with a spectrophotometer; type: physicochemical; conditions: ICG 0.5 mg/mL, gelatin 40 mg/mL; FIG. 2, FIG. 5
# Description: The absorption spectrum of the obtained gelatin-ICG complex 1 was measured with a spectrophotometer (Beckman Coulter, Inc.).
# The absorption spectrum and the absorbance at 780 nm of the gelatin-ICG complex 1 are illustrated in FIGS. 2 and 3, respectively. The absorption spectrum and the absorbance at 780 nm of ICG are also illustrated in FIGS. 2 and 3, respectively, as a comparative example.
# The gelatin-ICG complex 1, 3, 4, 5, or 6 (final concentration, 40 or 100 mg/mL) and an ICG solution (final concentration, 0.5 mg/mL) were mixed to obtain a gelatin-ICG complex.
# The complexes and the mixtures were prepared at final concentrations of ICG and a gelatin of 0.5 mg/mL and 40 mg/mL, respectively.
# An ICG solution (final concentration, 0.1 mg/mL) and a gelatin (weight-average molecular weight, 10,000; final concentration, 100 m g/mL) were mixed to obtain a mixture (gelatin-ICG mixture) of a gelatin and ICG. The absorption spectrum of the obtained gelatin-ICG mixture was measured with a spectrophotometer. The results are illustrated in FIG. 19.
# [2] = Stability: absorption spectrum with time in PBS or PBS containing albumin at 37° C.; type: physicochemical
# Description: To evaluate stability of the gelatin-ICG complex 1, the gelatin-ICG complex 1 was allowed to stand in PBS (phosphate buffered saline) or in PBS containing albumin (40 mg/mL) at 37° C., and the absorption spectrum was measured with time.
# [3] = test system: cancer-bearing mouse having a cancer site in the left hindlimb; assay: In vivo kinetics by fluorescent imaging in cancer-bearing mouse; conditions: caudal vein dosing, ICG 0.5 mg/ml; FIG. 17A-C, 18A
# Description: After the gelatin-ICG complex 1 was dosed from the caudal vein of a cancer-bearing mouse having a cancer site in the left hindlimb, images were taken over time with a fluorescent imaging apparatus (GE Healthcare), and in vivo kinetics of the gelatin-ICG complex 1 were evaluated.
# Furthermore, as a comparative example, ICG alone at the same concentration (0.5 mg/ml) was intravenously dosed to a cancer-bearing mouse, and a similar evaluation was performed. Changes with time in the fluorescent imaging after dosing the gelatin-ICG complex 1 are illustrated in FIG. 17A. Changes with time after dosing ICG alone are illustrated in FIG. 17B. Changes with time in the fluorescence intensity in these cancer tissues are illustrated in FIG. 17C.
# A gelatin-ICG complex 7 including a gelatin derivative 7 (DSPE 67% introduced) fluorescently labeled with Cy5.5 and ICG was prepared and dosed to a cancer-bearing mouse in the same manner as in Example 15 to evaluate in vivo kinetics of the gelatin derivative 7 itself. Changes with time in the fluorescent imaging are illustrated in FIG. 18A. Furthermore, ICG alone at the same concentration was dosed to a cancer-bearing mouse as a comparative example. Changes with time in the fluorescent imaging are illustrated in FIG. 18B.
smiles,measurement,setting,value
"CC1(C)C(/C=C/C=C/C=C/C=C2/N(CCCCS(=O)(=O)[O-])c3ccc4ccccc4c3C2(C)C)=[N+](CCCCS(=O)(=O)[O-])c2ccc3ccccc3c21.[Na+] [ICG, indocyanine green]","absorption spectrum (associate around 700 nm, monomer around 780 nm)",[1],absorbance on the long wavelength side was low
same,changes with time in absorption spectrum / absorbance (λmax),[2]; PBS containing albumin (40 mg/mL),stability was slightly inferior as compared with the stability of the gelatin-ICG complex 1
same,changes with time in absorption spectrum / absorbance (λmax),[2]; PBS without albumin,changed greatly with time
same,"distribution of ICG to cancer tissue, fluorescence with time",[3],distributed to the cancer tissue temporarily after dosing ICG alone and eliminated with time
